Measured values reported in publication PMC6748986, “Potent modulation of the CepR quorum sensing receptor and virulence in a Burkholderia cepacia complex member using non-native lactone ligands” (Scientific Reports, 2019).

Tests used:
[1] = target: T1, CepR (Burkholderia cenocepacia, UniProt B4EMD0); test: CepR agonism in E. coli β-galactosidase reporter (Ec-reporter) JLD271 [pJN105-cepR + pSC11-cepI]; format: cell-based, B. cenocepacia
T1 sequence (B4EMD0 1-239): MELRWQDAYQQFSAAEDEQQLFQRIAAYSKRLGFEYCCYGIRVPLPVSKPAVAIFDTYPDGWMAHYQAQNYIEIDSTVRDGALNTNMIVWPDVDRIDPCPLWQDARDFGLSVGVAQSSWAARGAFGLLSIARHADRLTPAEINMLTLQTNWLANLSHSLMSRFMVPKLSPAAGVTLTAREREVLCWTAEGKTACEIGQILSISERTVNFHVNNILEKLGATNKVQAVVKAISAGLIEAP
Text: (§1) We began our study by screening the AHL library for CepR modulators using an E. coli-based two plasmid reporter system (Ec-reporter)[38]–[40]. Certain members of the Bcc harbor additional QS systems that are either AHL-based (e.g., BviI/BviR in B. vietnamiensis)[41] or diffusible signal factor (DSF)-based (B. cenocepacia)[42], and at least one member of the Bcc has multiple receptors that respond to C8-AHL (e.g., CepR and CepR2 in B. cenocepacia)[43]. Thus, we reasoned that using a CepR reporter in a heterologous background could simplify our initial analyses. We modified our previously reported E. coli-based two plasmid β-galactosidase reporter system to develop a CepR Ec-reporter (see Methods). The first plasmid, pJN105-cepR, contains CepR from B. cenocepacia under the control of the L-arabinose inducible pBAD promoter. A second plasmid contains a transcriptional fusion of lacZ to the cepI promoter region. The two plasmids were co-transformed into a QS mutant E. coli strain (JLD271 ∆sdiA) that lacks its LuxR-type receptor, SdiA. Using this reporter system, if an exogenously -added compound is able to interact with CepR, this will affect the protein’s interaction with the cepI promoter region and alter β-galactosidase production. Enzyme production, and thereby CepR activity, is then measurable via the degradation of a colorimetric substrate for β-galactosidase. Using this new Ec-reporter, we observed robust activity of CepR in response to its native ligand C8-AHL, with an EC50 of 5 nM (Table 1).
We used the CepR Ec-reporter to perform a primary agonism screen at a single compound concentration (100 μM, or its solubility limit, indicated in Table S1). Thirty-one compounds displaying ≥70% agonistic activity in CepR (relative to C8-AHL) were identified and subjected to dose-response analyses using the Ec-reporter (Table I; see Table S2 for complete screening data and Fig. S3 for dose-response curves).
(§2) E. coli β-galactosidase reporter assays (derived from ref.[63]) and reagents used to obtain primary screening and dose-response data were performed as previously described[22],[60],[64], with the following modifications: E. coli JLD271 (∆sdiA) was co-transformed iteratively with pSC11-cepI and pJN105-cepR via electroporation. A single colony was used to start overnight cultures in LB medium + ampicillin (100 μg/mL) + gentamicin (15 μg/mL). A 1:10 dilution of overnight culture was grown in fresh medium to OD600 = 0.25. A sterile solution of L-arabinose in water (27 mM final concentration) was added to induce protein expression, after which cells were plated in 96-well plates containing varying concentrations of compound (200 μL total volume).
(§3) Cells were grown for 4 h, OD600 was read, 50 μL aliquots from each well were permeabilized in 200 μL Z Buffer, and then 150 μL of this mixture used to measure the cleavage of 25 μL of 4 mg/mL CPRG in phosphate buffered saline (PBS) at 37 °C until positive control wells developed a deep red color (~30 min). For all agonism assays, synthetic compound (100 μM) was screened alongside and compared to the native ligand, C8-AHL (100 μM). For all primary and dose-response antagonism assays, the concentration of native ligand utilized was 10 nM (approximately equal to twice its EC50 value). […] At least 3 separate trials were performed using unique cultures on separate days.

[2] = target: T1, CepR; test: CepR antagonism in E. coli β-galactosidase reporter (Ec-reporter), competition against C8-AHL; format: cell-based, B. cenocepacia; conditions: for Inh% (100-Act%): Table S3, Ec-reporter; for CepR antagonism in words: Ec-reporter
Text: as §1
To identify antagonists of CepR, we screened the AHL library (at 100 μM) in competition against the native ligand C8-AHL (at approximately twice its EC50 value, 0.01 μM) in the Ec-reporter. […] The active compounds were subjected to dose-response analyses in the Ec-reporter to obtain IC50 values and assess their relative potencies (Table 2; see Table S3 for complete screening data and Fig. S3 for dose-response curves). One general trend that we noted at the outset was the majority of the antagonists had acyl tails of similar or shorter overall length than CepR’s native ligand, C8-AHL. From this set, the strongest antagonists could be divided into two classes: (i) “short alkyl tail” AHLs or analogs thereof, and (ii) phenylacetanoyl HLs (PHLs). The discovery that the latter compounds were CepR antagonists was perhaps not surprising, as we have found substituted PHLs to strongly antagonize the majority of the LuxR-type receptors studied in our laboratory to date[22],[24],[29],[45],[46].
as §2, §3

[3] = Table S2, Ec-reporter, screening conc. 100 μM
[4] = screening conc. 100 μM, against 10 nM C8-AHL

Row | SMILES | Act% [1, 3] | Inh% (100-Act%) [2, 4] | other results
1 | Cc1nc(-c2ccccc2)oc1CC(=O)N[C@H]1CCOC1=O [Compound D4] | 40% | 22% | 
2 | Cc1ccc(C(=O)CCC(=O)N[C@H]2CCOC2=O)cc1 [Compound D6] | 61% | -50% | 
3 | CCCc1ccc(C(=O)CCC(=O)N[C@H]2CCOC2=O)cc1 [Compound D7] | 18% | 15% | 
4 | O=C(N[C@H]1CCOC1=O)c1cnn(-c2ccccc2)c1C(F)(F)F [Compound D9] | 14% | 0.0% | 
5 | CCCCCCCCc1ccc(C(=O)N[C@H]2CCOC2=O)cc1 [Compound D13] | 4.2% | 38% | 
6 | O=C(N[C@H]1CCOC1=O)C1CCC(c2ccc(Cl)cc2)CC1 (stereo partly shown) [Compound D14] |  |  | Act% ([1]; Table S2, Ec-reporter, screening conc. 40 μM): 54%; Inh% (100-Act%) ([2]; screening conc. 40 μM): -20%
7 | O=C(COc1ccc(OC(F)(F)F)cc1)N[C@H]1CCOC1=O [Compound D15] | 46% | -20% | 
8 | COc1cc(C(C)=O)ccc1OCC(=O)N[C@H]1CCOC1=O [Compound D16] | 3.5% | 0.0% | 
9 | O=C(N[C@H]1CCOC1=O)c1ccc(N=Nc2ccccc2)cc1 [Compound D20] |  |  | Act% ([1]; Table S2, Ec-reporter, screening conc. 77 μM): 37%; Inh% (100-Act%) ([2]; screening conc. 77 μM): 8.0%
10 | Cc1cccc(CC(=O)N[C@H]2CCOC2=O)c1 [Compound E1] | 16% | 11% | 
11 | COc1cccc(CC(=O)N[C@H]2CCOC2=O)c1 [Compound E2] | 28% | -10% | 
12 | CSc1ccc(CC(=O)N[C@H]2CCOC2=O)cc1 [Compound E6] | 3.7% | -10% | 
13 | O=C(Cc1ccc(SC(F)(F)F)cc1)N[C@H]1CCOC1=O [Compound E8] | 14% | 0.0% | 
14 | O=C(Cc1cc(C(F)(F)F)cc(C(F)(F)F)c1)N[C@H]1CCOC1=O [Compound E9] | 2.2% | 13% | 
15 | O=C(Cc1ccc2ccccc2c1)N[C@H]1CCOC1=O [Compound E12] | 11% | -10% | 
16 | O=C(COc1ccccc1)N[C@H]1CCOC1=O [Compound E14] | 57% | -30% | 
17 | Cc1ccc(OCC(=O)N[C@H]2CCOC2=O)cc1 [Compound E15] | 65% | -30% | 
18 | Cc1cccc(OCC(=O)N[C@H]2CCOC2=O)c1 [Compound E16] | 11% | 21% | 
19 | COc1ccc(OCC(=O)N[C@H]2CCOC2=O)cc1 [Compound E17] | 50% | 0.0% | 
20 | COc1cccc(OCC(=O)N[C@H]2CCOC2=O)c1 [Compound E18] | 30% | 0.0% | 
21 | O=C(COc1ccc(F)cc1)N[C@H]1CCOC1=O [Compound E19] | 42% | 22% | 
22 | O=C(COc1ccc(Cl)cc1)N[C@H]1CCOC1=O [Compound E20] | 100% | -20% | EC50 ([1]; Table S2, Ec-reporter): 210 nM
23 | O=C(COc1ccc(Br)cc1)N[C@H]1CCOC1=O [Compound E21] | 89% | -10% | 

Row | SMILES | Act% [1, 3] | Inh% (100-Act%) [2, 4] | other results
24 | O=C(COc1ccc(I)cc1)N[C@H]1CCOC1=O [Compound E22] | 92% | -30% | 
25 | O=C(COc1ccc(C(F)(F)F)cc1)N[C@H]1CCOC1=O [Compound E23] | 89% | -10% | 
26 | O=C(COc1ccc([N+](=O)[O-])cc1)N[C@H]1CCOC1=O [Compound E24] | 75% | -10% | 
27 | Cc1cccc(CCC(=O)N[C@H]2CCOC2=O)c1 [Compound E27] | 75% | -10% | EC50 ([1]; Table S2, Ec-reporter): 850 nM
28 | O=C(CCc1cccc([N+](=O)[O-])c1)N[C@H]1CCOC1=O [Compound E38] | 93% | -10% | EC50 ([1]; Ec-reporter, agonism dose-response): 660 nM; Maximal Activation (%) ([1]; Ec-reporter, activity for 100 μM C8-AHL set to 100%, error ±10%): 93%
29 | O=C(Cc1ccc(Br)cc1)NC1CCSC1=O (stereo not shown) [Compound F10] | 0.5% | 6.0% | CepR antagonism in words [2]: dramatic losses in activity
30 | O=C(Cc1cccc([N+](=O)[O-])c1)NC1CCSC1=O (stereo not shown) [Compound F11] | 45.0% | 25% | 
31 | COc1ccc(CC(=O)NC2CCSC2=O)cc1 (stereo not shown) [Compound F12] | 2.4% | -20% | 
32 | O=C(Cc1ccc(-c2ccccc2)cc1)NC1CCSC1=O (stereo not shown) [Compound F13] | 35% | -20% | 
33 | O=C(Cc1ccccc1)NC1CCCC1 [Compound F16] | 7.4% | -30% | 
34 | O=C(Cc1cccc([N+](=O)[O-])c1)NC1CCCC1 [Compound F18] | 1.0% | -20% | CepR antagonism in words [2]: dramatic losses in activity
35 | O=C(Cc1ccc(-c2ccccc2)cc1)NC1CCCC1 [Compound F20] | 0.5% | -10% | 
36 | O=C(CCCc1c[nH]c2ccccc12)NC1CCCC1 [Compound F21] | -4.0% | 25% | 
37 | O=C(Cc1cccc([N+](=O)[O-])c1)Nc1ccccc1 [Compound F25] | 3.0% | 12% | CepR antagonism in words [2]: dramatic losses in activity
38 | CCCCCCCCCC(=O)CC(=O)NCc1ccccc1F [Compound F26] | -1.2% | 20% | 
39 | CCCCCCCCCC(=O)CC(=O)NCc1ccc(OC)cc1 [Compound F31] | 7.6% | 21% | 
40 | CCCCCCCCCC(=O)CC(=O)NCCc1ccccc1 [Compound F50] |  |  | Act% ([1]; Table S2, Ec-reporter, screening conc. 50 μM): 12%; Inh% (100-Act%) ([2]; screening conc. 50 μM): 1.0%
41 | O=C(Cc1cccc([N+](=O)[O-])c1)Nc1cccc([N+](=O)[O-])c1 [Compound F55] | 25% | 13% | CepR antagonism in words [2]: dramatic losses in activity
42 | O=C(CC(O)Cc1cccc(I)c1)N[C@H]1CCOC1=O (stereo partly shown) [Compound H15] | 2.6% | 18% | 
43 | O=C(CC(=O)N[C@H]1CCOC1=O)Cc1cccc(Cl)c1 [Compound H23] | 53% | -20% | 
44 | O=C(N[C@H]1CCOC1=O)c1ccccc1Br [Compound Q1] | 5.8% | -30% | 
45 | O=C(N[C@H]1CCOC1=O)c1cccc(Br)c1 [Compound Q2] | 4.9% | -30% | 
46 | O=C(N[C@H]1CCOC1=O)c1ccc(F)cc1 [Compound Q3] | 11% | 17% | 
